{
  "source": "patent US10203334B2",
  "about": "“Methods and compositions related to nucleic acid binding assays” (Nubad, LLC, priority 2012, dated 2019)",
  "type_in_all_cases": "binding",
  "key": {"[1]": {"system": "E. coli ribosomal A-site oligonucleotide (SEQ ID No. 1)", "experiment": "96-well F-neo displacement HTS on ribosomal A-site", "conditions": "96-well plate reader; 0.30 mM F-neo and 0.3 mM A-site oligonucleotide", "source_text": "[drawing 24] where FHNeo represents the protonated form of F-neo. F(-)Neo, upon binding to nucleic acids such as DNA or RNA, is destabilized by the nucleic acid backbone negative potential, shifting the equilibrium towards FH, making F-neo a weaker acid, raising the pKa, which is what we observe upon binding to the A-site. For the A-site targeted assay, we calculated the Z' factor (Z=1-3(2.7+2.8)/(414-267)=0.89. […] Provided is a detailed example for the development of a HTS by the displacement of a fluorescene-neomycin (F-neo (42a)) from rRNA A-site oligonucleotide (SEQ ID No. 1) using a 96 well plate format and a fluorescent plate reader. […] This HTS involves the displacement of a fluorescene-neomycin (F-neo (42a)) by potential RNA binding molecules in a 96 well plate format using a fluorescent plate reader. […] F-neo based RNA binding assays have been performed using a fluorescence spectrophotometer with a 96-well plate reader and results recorded in FIG. 4. […] Fo is defined as the baseline fluorescence intensity of the RNA/F-neo complex and F is the intensity with added drug. The difference between the fluorescence intensity baseline of F-neo/A-site complex and complex with added drug (F-Fo) indicates the extent of the competition of drug for the binding site, this allows the relative binding affinities of aminoglycosides to be established. […]"}, "[2]": {"system": "E. coli ribosomal A-site (SEQ ID No. 1)", "experiment": "Quenching of F-neo by ribosomal A-site mimics, 96-well", "conditions": "0.1 μM RNA to 0.1 μM F-neo (42a); em 535 nm, ex 485 nm; ten wells averaged", "protocol": "Disclosed is an HTS showing the difference in the binding affinity of fluorescene-neomycin (F-neo (42a)) to various synthetic RNA sequence 27 bases long designed to mimic the ribosomal A-site using a 96 well plate format and a fluorescent plate reader. Differences in binding are determined by the differential quenching of F-neo (42a) upon binding to the RNA.\nFollowing the SOP's established for F-neo (42a) binding to E. coli A-site, each sequence was added at 0.1 μM RNA to 0.1 μM F-neo (42a) using 100 reads/well using a Tecan Genios Pro plate reader in a 96 well Greiner black plate. The emission was measured at wavelength 535 nm, using an excitation wavelength of 485 nm. All experiments were performed in 10 mM hepes (7.0), 50 mM NaCl, and 0.4 mM EDTA."}, "[3]": {"system": "DNA duplex poly(dA).poly(dT), hybrid duplex poly(rA).poly(dT), calf thymus DNA, i-motif DNA, and all single-stranded nucleic acids", "experiment": "Competition dialysis", "source_text": "(§1) Disclosed is the use of fluorescent aminosugar probes such as F-neo (42a) to probe a variety of nucleic acid targets. Competition dialysis was used as a nucleic acid screening technique to illustrate the binding of F-neo (42a) to different nucleic acid structures.\n(§2) Competition dialysis studies using a fluorescein-neomycin conjugate (F-neo (42a)). […] Comparative binding of F-neo (42a) to 13 different nucleic acid structures was examined which included single strand nucleic acids [poly(dT), poly(A), poly(U)], duplexes [poly(dA).poly(dT), poly(rA).poly(dT), poly(rA).poly(rU), poly(dA).poly(rU), poly(dG).poly(dC), calf thymus], triplexes [poly(dA).2poly(dT), poly(rA).2poly(rU)], i-motif (polydC) and 16S A-site rRNA (SEQ ID No. 1). The amount of F-neo (42a) bound to each nucleic acid is shown as a bar graph in FIG. 13. Because all nucleic acids are dialyzed simultaneously in the same ligand solution, the amount of bound F-neo (42a) is directly proportional to its affinity for each nucleic acid. […] 200 μL of different nucleic acids (7.5 μM per monomeric unit of each polymer) was dialyzed for 72 h with 400 mL 100 nM ligand in 6 mM Na2HPO4, 2 mM NaH2PO4, 1 mM Na2EDTA, pH 7.0 and various Na+ concentrations as indicated.\n(§3) F-neo (42a) prefers to bind to 16S A-site rRNA yielding a bound ligand concentration of 85 nM in 100 mM Na^+, 50 nM in 150 mM Na^+, and 15 nM in 200 mM Na^+ is shown in FIG. 15."}, "[4]": {"system": "RNA duplex poly(rA).poly(rU)", "experiment": "Competition dialysis", "conditions": "under these salt conditions (100-200 mM Na^+)", "source_text": "as §1, §2, §3"}, "[5]": {"system": "RNA triplex poly(rA).2poly(rU)", "experiment": "Competition dialysis", "source_text": "as §1, §2, §3"}, "[6]": {"system": "hybrid duplex poly(dA).poly(rU)", "experiment": "Competition dialysis", "conditions": "under these salt conditions (100-200 mM Na^+)", "source_text": "as §1, §2, §3"}},
  "data": [
    {"compound": "NCC1O[C@H](OC2C(O)C(OC3C(O)[C@H](N)CC(N)[C@H]3O[C@H]3OC(CN)[C@@H](O)C(O)C3N)O[C@@H]2CSCCNC(=O)CCSCC(=O)Nc2ccc(-c3c4ccc(=O)cc-4oc4cc(O)ccc34)c(C(=O)O)c2)C(N)C(O)[C@@H]1O", "note": "(some centres unmarked) [F-neo (42a), Neomycin-Fluorescein Conjugate]", "values": [
      {"measurement": "reduction in fluorescence intensity on addition of A-site", "setting": "[1]", "result": 2, "unit": "fold"},
      {"measurement": "fluorescence of F-neo with RNA", "setting": "[2]", "result": "7963 (±221)"},
      {"measurement": "binding in competition dialysis", "setting": "[3]", "result": "moderate to very weak binding"},
      {"measurement": "bound drug", "setting": "[4]", "result": "10 to 20", "unit": "nM"},
      {"measurement": "bound F-neo (42a)", "setting": "[5]; 100 mM Na^+", "result": 60, "unit": "nM"},
      {"measurement": "bound F-neo (42a)", "setting": "[5]; 150 mM Na^+", "result": 20, "unit": "nM"},
      {"measurement": "bound F-neo (42a)", "setting": "[5]; 200 mM Na^+", "result": 5, "unit": "nM"},
      {"measurement": "bound drug", "setting": "[6]", "result": "10 to 20", "unit": "nM"}
    ]}
  ]
}
